In BindingDB's records for doi:10.1016/j.bmcl.2007.01.009 (Karo Bio, 2007):

Target: T1, Thyroid hormone receptor alpha (Homo sapiens, UniProt P10827)
T1 sequence (P10827 whole entry): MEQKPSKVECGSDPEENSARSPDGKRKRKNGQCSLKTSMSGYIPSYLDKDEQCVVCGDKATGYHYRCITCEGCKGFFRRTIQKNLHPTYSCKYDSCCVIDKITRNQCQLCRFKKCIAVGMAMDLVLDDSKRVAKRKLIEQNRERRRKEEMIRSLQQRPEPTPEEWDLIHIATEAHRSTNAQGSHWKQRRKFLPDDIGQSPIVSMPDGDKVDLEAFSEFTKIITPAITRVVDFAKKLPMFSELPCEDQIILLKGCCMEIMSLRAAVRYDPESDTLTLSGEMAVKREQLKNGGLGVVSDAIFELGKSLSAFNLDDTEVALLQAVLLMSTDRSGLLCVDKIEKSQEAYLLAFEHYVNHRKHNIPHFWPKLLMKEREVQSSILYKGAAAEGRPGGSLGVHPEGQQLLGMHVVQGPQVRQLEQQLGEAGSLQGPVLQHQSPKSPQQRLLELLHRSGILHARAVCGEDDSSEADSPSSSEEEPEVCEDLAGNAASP
Assay: TRalpha-Binding Assay and Thyroid Response Element (TRAFalpha1) Reporter Assay.
Details: pH 7; 4 °C
Excerpt: EC50 is the concentration of compound required to reach or inhibit (agonist or antagonist) 50% of T3-induced TRalpha-activation in CHOK1 cells stably transfected with hTRalpha using alkaline phosphatase reporter assay.

## O=C(O)CCc1cc(Br)c(OCc2cccc(Br)c2)c(Br)c1 [3-{3,5-dibromo-4-[(3-bromophenyl)methoxy]phenyl}propanoic acid]
  EC50: 380 nM
